Measurements: publication PMC10823399 (Journal of medicinal chemistry, 2015)

Key:
D2R [1] = target: T1, D2R (Homo sapiens, UniProt P14416); experiment: [35S]GTPγS binding assay, interaction with dopamine; assay type: biochemical; details: composite cooperativity with dopamine
D2LR [2] = target: T2, D2LR (Homo sapiens, UniProt P14416); experiment: ERK1/2 phosphorylation assay, interaction with dopamine; assay type: cell-based; details: for Kb: operational model of allosterism (Equation 5); for activity at the D2R in words: effect on dopamine concentration-response, highest concentration 300 μM
T2 sequence (P14416 whole entry): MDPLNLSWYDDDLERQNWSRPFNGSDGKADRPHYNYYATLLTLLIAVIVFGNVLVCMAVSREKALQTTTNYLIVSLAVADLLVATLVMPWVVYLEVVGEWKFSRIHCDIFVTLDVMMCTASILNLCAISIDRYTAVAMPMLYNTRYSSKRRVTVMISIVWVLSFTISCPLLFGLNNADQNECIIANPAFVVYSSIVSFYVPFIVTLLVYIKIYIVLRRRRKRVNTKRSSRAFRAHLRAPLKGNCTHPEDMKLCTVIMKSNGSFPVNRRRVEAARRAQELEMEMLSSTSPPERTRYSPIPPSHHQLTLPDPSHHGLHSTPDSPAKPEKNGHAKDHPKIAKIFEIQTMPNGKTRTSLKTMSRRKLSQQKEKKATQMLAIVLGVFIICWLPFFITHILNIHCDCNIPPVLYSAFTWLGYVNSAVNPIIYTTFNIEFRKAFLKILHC

D2R [3] = target: T1, D2R; experiment: [3H]spiperone binding assay
D2LR [4] = target: T2, D2LR; experiment: BRET cAMP assay; assay type: cell-based
Val91^2.61Ala D2R = Val91^2.61Ala D2R (Homo sapiens, UniProt P14416, V91A); experiment: ERK1/2 phosphorylation assay at mutant D2R; assay type: cell-based
Val91^2.61Ala D2R, sequence (P14416 whole entry V91A): as the sequence (P14416 whole entry) above, with V91A counted along it

Glu95^2.65Ala D2R = Glu95^2.65Ala D2R (Homo sapiens, UniProt P14416, E95A); experiment: ERK1/2 phosphorylation assay at mutant D2R; assay type: cell-based
Glu95^2.65Ala D2R, sequence (P14416 whole entry E95A): as the sequence (P14416 whole entry) above, with E95A counted along it

D2R [5] = target: T1, D2R; experiment: Interaction of bitopic ligand 36 with dopamine at the D2R
[6] = WT D2R, binding cooperativity with dopamine
[7] = Table 3, binding cooperativity with dopamine
[8] = Table 4, binding cooperativity with dopamine

T1 sequence (P14416 whole entry): as the sequence (P14416 whole entry) above

Q: How did the Logαβ (D2R [1]) turn out when `CN(C)CC[C@H]1CC[C@H](NC(=O)c2cc3ccccc3[nH]2)CC1.Cl` [Compound 9a, N-((trans)-4-(2-(Dimethylamino)ethyl)cyclohexyl)-1H-indole-2-carboxamide hydrochloride] was run?
A: The Logαβ was −0.84 ± 0.15.

Q: And the αβ (D2R [1]; <1 negative)?
A: Its αβ is 0.14.

Q: And the Kb (D2LR [2]; KB, WT D2R)?
A: Its Kb is 3 µM.

Q: And the Logα (D2LR [2]; [6])?
A: The Logα was −0.61 ± 0.14.

Q: What about the α (D2LR [2]; [6]) of the same compound?
A: Its α is 0.25.

Q: What about the Logβ (D2LR [2]; WT D2R, modulation of dopamine efficacy, fixed to −100 in the fit) of the same compound?
A: Its Logβ is −100.

Q: What about the Kb (D2LR [2]; pKB, WT D2R) of the same compound?
A: Its Kb is 2.88 µM.

Q: How did the “mode of action in words” value (D2LR [2]; pERK1/2 assay) turn out when `CCCN(CCC)CC[C@H]1CC[C@H](NC(=O)c2cc3ccccc3[nH]2)CC1` [Compound 9b, N-((trans)-4-(2-(Dipropylamino)ethyl)cyclohexyl)-1H-indole-2-carboxamide] was run?
A: Its value is “partial agonist”.

Q: What about the Ki (D2R [3]) of the same compound?
A: Its Ki is 20 µM.

Q: And the “mode of action in words” value (D2LR [4])?
A: Its value is “competitive partial agonist”.

Q: `NC(=O)c1cc2ccccc2[nH]1` [Compound 11a, 1H-Indole-2-carboxamide] was tested. Which “activity at the D2R in words” value (D2LR [2]) did it give?
A: The value was “does not exhibit receptor binding”.

Q: With `CCNC(=O)c1cc2ccccc2[nH]1` [Compound 11b, N-Ethyl-1H-indole-2-carboxamide] as the compound, how does the Logα (D2LR [2]; [7]) read?
A: The Logα was −0.35 ± 0.21.

Q: For `CCCNC(=O)c1cc2ccccc2[nH]1` [Compound 11c, N-Propyl-1H-indole-2-carboxamide], which Logα (D2LR [2]; [7]) is on record?
A: Its Logα is −0.60 ± 0.09.

Q: How did the “decrease in affinity caused by mutation” value (Val91^2.61Ala D2R; Val91^2.61Ala vs WT) turn out when `CCCCNC(=O)c1cc2ccccc2[nH]1` [Compound 11d, N-Butyl-1H-indole-2-carboxamide] was run?
A: The value was 14 fold.

Q: And the “increase in affinity compared to 3” value (D2LR [2])?
A: Its value is 7 fold.

Q: And the “increase in negative cooperativity compared to 3” value (D2LR [2])?
A: Its value is 10 fold.

Q: And the Logα (D2LR [2]; [7])?
A: Its Logα is −1.63 ± 0.11.

Q: What about the Logα (D2LR [2]; Table 5, Wild Type) of the same compound?
A: Its Logα is −1.63 ± 0.11.

Q: What about the α (D2LR [2]; Table 5, Wild Type) of the same compound?
A: Its α is 0.02.

Q: What about the Logβ (D2LR [2]; Table 5, Wild Type, constrained) of the same compound?
A: The Logβ was −100.

Q: What about the Logα (Glu95^2.65Ala D2R; Table 5, Glu95^2.65Ala) of the same compound?
A: Its Logα is −1.24 ± 0.17.

Q: What about the α (Glu95^2.65Ala D2R; Table 5, Glu95^2.65Ala) of the same compound?
A: The α was 0.05.

Q: What about the Logβ (Glu95^2.65Ala D2R; Table 5, Glu95^2.65Ala, no modulation of dopamine efficacy) of the same compound?
A: Its Logβ is 0.

Q: With `C=CCNC(=O)c1cc2ccccc2[nH]1` [Compound 11e, N-Allyl-1H-indole-2-carboxamide] as the compound, how does the Logα (D2LR [2]; [7]) read?
A: Its Logα is −0.26 ±0.06.

Q: For `O=C(NCCO)c1cc2ccccc2[nH]1` [Compound 11f, N-(2-Hydroxyethyl)-1H-indole-2-carboxamide], which “activity at the D2R in words” value (D2LR [2]) is on record?
A: The value was “inactivity”.

Q: Which Logα (D2LR [2]; [7]) does the source give for `CC(C)(C)NC(=O)c1cc2ccccc2[nH]1` [Compound 11h, N-(tert-Butyl)-1H-indole-2-carboxamide] here?
A: Its Logα is −0.58 ± 0.13.

Q: With `CC(C)N(C(=O)c1cc2ccccc2[nH]1)C(C)C` [Compound 11j, N,N-Diisopropyl-1H-indole-2-carboxamide] as the compound, how does the Logα (D2LR [2]; [7]) read?
A: The Logα was −1.39 ± 0.11.

Q: With `O=C(NC1CCC1)c1cc2ccccc2[nH]1` [Compound 11p, N-Cyclobutyl-1H-indole-2-carboxamide] as the compound, how does the Logα (D2LR [2]; [7]) read?
A: The Logα was −1.77 ± 0.27.

Q: `O=C(NC1CCCC1)c1cc2ccccc2[nH]1` [Compound 11q, N-Cyclopentyl-1H-indole-2-carboxamide] was tested. Which Logα (D2LR [2]; [7]) did it give?
A: Its Logα is −0.63 ± 0.11.

Q: With `O=C(NC1CCCCC1)c1cc2ccccc2[nH]1` [Compound 11r, N-Cyclohexyl-1H-indole-2-carboxamide] as the compound, how does the “activity at the D2R in words” value (D2LR [2]) read?
A: The value was “no determinable activity”.

Q: Which Logα (D2LR [2]; [7]) does the source give for `O=C(NN1CCCCC1)c1cc2ccccc2[nH]1` [Compound 11s, N-(Piperidin-1-yl)-1H-indole-2-carboxamide] here?
A: The Logα was −0.53 ± 0.13.

Q: How did the Logα (D2LR [2]; [7]) turn out when `CC(C)NC(=O)c1[nH]c2ccccc2c1F` [Compound 13a, 3-Fluoro-N-isopropyl-1H-indole-2-carboxamide] was run?
A: Its Logα is −0.72 ± 0.35.

Q: And the α (D2LR [2]; [7])?
A: Its α is 0.19.

Q: Which Logα (D2LR [2]; [7]) does the source give for `CC(C)NC(=O)c1cc2c(F)cccc2[nH]1` [Compound 13b, 4-Fluoro-N-isopropyl-1H-indole-2-carboxamide] here?
A: The Logα was −1.14 ± 0.10.

Q: With `CC(C)NC(=O)c1cc2cccc(F)c2[nH]1` [Compound 13e, 7-Fluoro-N-isopropyl-1H-indole-2-carboxamide] as the compound, how does the Logα (D2LR [2]; [7]) read?
A: The Logα was −0.96 ± 0.12.

Q: How did the “activity at the D2R in words” value (D2LR [2]) turn out when `CC(C)NC(=O)c1cc2ccccc2n1C` [Compound 17, N-Isopropyl-1-methyl-1H-indole-2-carboxamide] was run?
A: The value was “did not show activity”.

Q: Which Logα (D2LR [2]; [8]) does the source give for `CC(C)NC(=O)c1nc2ccccc2[nH]1` [Compound 19, N-Isopropyl-1H-benzo[d]imidazole-2-carboxamide] here?
A: The Logα was −1.07 ± 0.22.

Q: With `CC(C)NC(=O)c1nc2ccccc2o1` [Compound 21, N-Isopropylbenzo[d]oxazole-2-carboxamide] as the compound, how does the “activity at the D2R in words” value (D2LR [2]) read?
A: The value was “did not show activity”.

Q: Which “activity at the D2R in words” value (D2LR [2]) does the source give for `CC(C)NC(=O)c1csc2ccccc12` [Compound 25b, N-Isopropylbenzo[b]thiophene-3-carboxamide] here?
A: Its value is “did not show activity”.

Q: `CC(C)NC(=O)c1cc2cccnc2[nH]1` [Compound 27, N-Isopropyl-1H-pyrrolo[2,3-b]pyridine-2-carboxamide] was tested. Which “activity at the D2R in words” value (D2LR [2]) did it give?
A: Its value is “lack of activity”.

Q: With `CC(C)NC(=O)c1cccc2[nH]ccc12` [Compound 30a, N-Isopropyl-1H-indole-4-carboxamide] as the compound, how does the “activity at the D2R in words” value (D2LR [2]) read?
A: Its value is “devoid of detectable activity”.

Q: For `CC(C)NC(=O)c1ccc2[nH]ccc2c1` [Compound 30b, N-Isopropyl-1H-indole-5-carboxamide], which Logα (D2LR [2]; [8]) is on record?
A: The Logα was −1.27 ± 0.3.

Q: With `CC(C)NC(=O)c1ccc2cc[nH]c2c1` [Compound 30c, N-Isopropyl-1H-indole-6-carboxamide] as the compound, how does the Logα (D2LR [2]; [8]) read?
A: The Logα was −1.1 ± 0.3.

Q: How did the “activity at the D2R in words” value (D2LR [2]) turn out when `CC(C)NC(=O)c1cccc2cc[nH]c12` [Compound 30d, N-Isopropyl-1H-indole-7-carboxamide] was run?
A: Its value is “devoid of detectable activity”.

Q: How did the Kb (D2R [5]) turn out when `N#Cc1ccc2c(c1)CN(CCCCNC(=O)c1cc3ccccc3[nH]1)CC2` [Compound 36, N-(4-(7-Cyano-3,4-dihydroisoquinolin-2(1H)-yl)butyl)-1H-indole-2-carboxamide] was run?
A: The Kb was 0.0813 µM.

Q: And the “increase in affinity as compared to 1” value (D2R [5])?
A: Its value is 10 fold.

Q: What about the Logαβ (D2R [5]; Figure 7, negative cooperativity with dopamine) of the same compound?
A: The Logαβ was −1.32 ± 0.09.

Q: For `NCCc1ccc(O)c(O)c1` [dopamine, reference compound], which LogτA (Val91^2.61Ala D2R; V91A D2R expressing cell line) is on record?
A: The LogτA was 0.65 ± 0.19.

Q: What about the LogτA (D2LR [2]; WT D2R expressing cell line) of the same compound?
A: The LogτA was 0.74 ± 0.07.

Q: And the LogτA (Glu95^2.65Ala D2R; E95A D2R expressing cell line)?
A: Its LogτA is 0.71 ± 0.24.
